Test results taken from paper PMC11661628, “Cannabis sativa extracts inhibit LDL oxidation and the formation of foam cells in vitro, acting as potential multi-step inhibitors of atherosclerosis development” (PLOS ONE, 2024).
Several values for one entry are separate records, joined by “and”; a condition that tells them apart may be missing. Equal entries are not always repeated. Where two headings read alike, the source gives them in different places.

Legend:
J774.1 cells [1] = test: Quantitation of oxLDL endocytosis (DiI-oxLDL spectrofluorometry); type: cell-based, murine; details: for effect of Ca2+ chelation on DiI-oxLDL internalized: BAPTA-AM 5–20 μM, EGTA 4 mM (S8 Fig); for effect on oxLDL uptake by the cells (dose-response, Fig 4) / ED50: DiI-oxLDL 10 μg mL^-1, 24 h; for ED50: oxLDL internalization, NE non-effective
rat TRPV1 = tested on: rat TRPV1; parameters: method as in PMID 15615864; details: cited from earlier work
human TRPV1 = tested on: human TRPV1; parameters: method as in PMID 15615864; details: cited from earlier work
CB1 = details: cited from earlier work
CB2 = details: cited from earlier work
J774.1 cells [2] = test: Cellular toxicity, MTT reduction; details: 24 h; for effect on cell viability and metabolism (MTT): explored range 3–30 μM; for LD50: MTT viability curves
Description: Cell viability was determined by the mitochondrial-dependent reduction of 3-[4,5-dimethylthiazole-2-yl]-2,5-diphenyltetrazolium bromide (MTT, Merck KGaA) to formazan. […] A control condition with vehicle alone (0.2% DMSO) was also added to each experiment. The medium was replaced with DMEM containing MTT (0.1 mg mL^-1) and the cells were incubated at 37° C for 4 h. After removing the media, formazan crystals were dissolved in DMSO, and the absorbance was registered using the Varioskan plate reader at 560 nm. […] Therapeutic indexes (TI) were calculated as the ratios between the […].

LDL = tested on: LDL; parameters: method as in PMID 33123676; details: already described; cited from earlier work
GPR55 = details: cited from earlier work
TRPV4 = details: read-out: Ki TRPV4; cited from earlier work
TRPV1 = details: cited from earlier work
[3] = Fig 4, 0.28 µM, 24 h, replicates n=1-3
[4] = Fig 4, 1.39 µM, 24 h, replicates n=1-3
[5] = Fig 4, 2.79 µM, 24 h, replicates n=1-3
[6] = Fig 4, 8.37 µM, 24 h, replicates n=1-3
[7] = Fig 4, 13.95 µM, 24 h, replicates n=1-3
[8] = S2 Table, ref THC [1–5], CBD [3–6], AEA [2,3,5,8,9], AM251 [5,10–16], AM630 [14,15,17,18], ML184 [22–24], CID16020046 [25], read-out: Ki or IC50, GPR55
[9] = Fig 5 A-C, antagonist alone 5 µM, 24 h, replicates n=1-3
[10] = Fig 4, 0.32 µM, 24 h, replicates n=1-3
[11] = Fig 4, 1.59 µM, 24 h, replicates n=1-3
[12] = Fig 4, 3.18 µM, 24 h, replicates n=1-3
[13] = Fig 4, 12.72 µM, 24 h, replicates n=1-3

SMILES: O=C(O)CN(CCOCCOCCN(CC(=O)O)CC(=O)O)CC(=O)O [EGTA]
- effect of Ca2+ chelation on DiI-oxLDL internalized (J774.1 cells [1]; 6 h): negligible

SMILES: CC(C)(C)c1ccc(/C=C/C(=O)Nc2ccc3c(c2)OCCO3)cc1 [AMG9810, 2E-N-(2,3-dihydro-1,4-benzodioxin-6-yl)-3-[4-(1,1-dimethylethyl)phenyl]-2-propenamide]
- effect of the antagonist on DiI-oxLDL uptake (J774.1 cells [1]): significant inhibition of DiI-oxLDL uptake
- IC50 (rat TRPV1): 0.0856 µM
- IC50 (human TRPV1): 0.0245 µM

SMILES: CCCCCc1cc2c(c(O)c1C(=O)O)C1C=C(C)CCC1C(C)(C)O2 (stereo not drawn) [THCA, Δ^9-tetrahydrocannabinolic acid]
- effect on oxLDL uptake by the cells (dose-response, Fig 4) (J774.1 cells [1]): inhibited oxLDL endocytosis
- DiI-oxLDL (J774.1 cells [1]; [3]): 5.657 µg/mL and 5.8008 µg/mL and 5.782 µg/mL
- µg DiI-oxLDL/mg protein (J774.1 cells [1]; [3]): 10.7513 µg DiI-oxLDL/mg protein and 10.8025 µg DiI-oxLDL/mg protein and 11.0708 µg DiI-oxLDL/mg protein
- DiI-oxLDL (J774.1 cells [1]; [4]): 5.437 µg/mL and 5.452 µg/mL and 5.506 µg/mL
- µg DiI-oxLDL/mg protein (J774.1 cells [1]; [4]): 9.919 µg DiI-oxLDL/mg protein and 9.956 µg DiI-oxLDL/mg protein and 10.007 µg DiI-oxLDL/mg protein
- DiI-oxLDL (J774.1 cells [1]; [5]): 5.849 µg/mL and 5.071 µg/mL and 5.133 µg/mL
- µg DiI-oxLDL/mg protein (J774.1 cells [1]; [5]): 9.9098 µg DiI-oxLDL/mg protein and 9.139 µg DiI-oxLDL/mg protein and 9.494 µg DiI-oxLDL/mg protein
- DiI-oxLDL (J774.1 cells [1]; [6]): 3.515 µg/mL and 3.542 µg/mL and 3.49 µg/mL
- µg DiI-oxLDL/mg protein (J774.1 cells [1]; [6]): 6.46 µg DiI-oxLDL/mg protein and 6.3952 µg DiI-oxLDL/mg protein and 6.189 µg DiI-oxLDL/mg protein
- DiI-oxLDL (J774.1 cells [1]; [7]): 2.689 µg/mL and 2.817 µg/mL and 2.8328 µg/mL
- µg DiI-oxLDL/mg protein (J774.1 cells [1]; [7]): 4.86 µg DiI-oxLDL/mg protein and 5.27 µg DiI-oxLDL/mg protein and 5.206 µg DiI-oxLDL/mg protein
- ED50 (J774.1 cells [1]): 12 ± 1 µM
- Ki (CB1): 1.29 µM
- Ki (CB2): 1.65 µM
- effect on cell viability and metabolism (MTT) (J774.1 cells [2]): no effect
- protection of LDL from oxidation (LDL): lack of protection

SMILES: C=C(C)[C@@H]1CCC(C)=C[C@H]1c1c(O)cc(CCCCC)cc1O [CBD, cannabidiol]
- effect on oxLDL uptake by the cells (dose-response, Fig 4) (J774.1 cells [1]): inhibited oxLDL endocytosis
- ED50 (J774.1 cells [1]): 25 ± 5 µM
- Ki (GPR55; [8]): 0.354 µM
- LD50 (J774.1 cells [2]): 23 ± 1 µM
- protection of LDL from oxidation (LDL): lack of protection

SMILES: Cc1ccc(-c2n[nH]c3c2C(c2cccc(O)c2)N(c2ccc(C(=O)O)cc2)C3=O)cc1 (stereo not drawn) [CID16020046, 4-[4,6-dihydro-4-(3-hydroxyphenyl)-3-(4-methylphenyl)-6-oxopyrrolo[3,4-c]pyrazol-5(1H)-yl]benzoic acid]
- effect of the antagonist on DiI-oxLDL uptake (J774.1 cells [1]): did not affect DiI-oxLDL uptake

SMILES: CC(C)C[C@H](NC(=O)c1cc2ccccc2s1)C(=O)N1CCN(C(=O)[C@H](CO)NS(=O)(=O)c2ccc(Cl)cc2Cl)CC1 [GSK1016790A, N-[(1S)-1-[[4-[(2S)-2-[[(2,4-dichlorophenyl)sulfonyl]amine]-3-hydroxy-1-oxopropyl]-1-piperazinyl]carbonyl]-3-methylbutyl]benzo [b]thiophene-2-carboxamide]
- increase of DiI-oxLDL uptake (J774.1 cells [1]): ~ 30%
- Ki (TRPV4): 0.005 µM

SMILES: COc1cc(CNC(=O)CCCCC=CC(C)C)ccc1O [Capsaicin, 8-methyl-N-vanillyl-6-nonenamide]
- increase of DiI-oxLDL uptake (J774.1 cells [1]; agonist 50 μM, 6 h, absence of extracts): ~ 15%

SMILES: Cc1c(C(=O)Nc2cccc(C(F)(F)F)c2)cc(-c2ccccc2)n1CCCN1CCOCC1 [HC067047, 2-methyl-1-(3-morpholin-4-ylpropyl)-5-phenyl-N -[3-(trifluoromethyl)phenyl]pyrrole-3-carboxamide]
- effect of the antagonist on DiI-oxLDL uptake (J774.1 cells [1]): did not affect DiI-oxLDL uptake
- Ki (TRPV4): 0.017 to 0.133 µM

SMILES: Cc1c(C(=O)NN2CCCCC2)nn(-c2ccc(Cl)cc2Cl)c1-c1ccc(I)cc1 [AM251, 1-(2,4-Dichlorophenyl)-5-(4-iodophenyl)-4-methyl-N-1-piperidinyl-1H-pyrazole-3-carboxamide]
- Ki (CB2): 0.124 µM

SMILES: CCCCC/C=C\C/C=C\C/C=C\C/C=C\CCCC(=O)NCCO [AEA, N-arachidonoylethanolamine]
- effect on oxLDL uptake by the cells (dose-response, Fig 4) (J774.1 cells [1]): unable to prevent the uptake of oxLDL
- Ki (CB1): 0.031 to 0.252 µM
- Ki (TRPV1): 0.27 µM

SMILES: Cc1cccc(N2CCN(C(=O)c3cc(S(=O)(=O)N(C)C)ccc3N3CCCC3)CC2)c1C [ML184, 3-[[4-(2,3-dimethylphenyl)-1-piperazinyl]carbonyl]-N,N-dimethyl-4-(1-pyrrolidinyl) benzenesulfonamide]
- DiI-oxLDL (J774.1 cells [1]): 0.641 µg/mL and 0.711 µg/mL and 0.735 µg/mL
- increase of DiI-oxLDL uptake (J774.1 cells [1]): ~ 15%
- µg DiI-oxLDL/mg protein (J774.1 cells [1]): 1.308 µg DiI-oxLDL/mg protein and 1.400 µg DiI-oxLDL/mg protein and 1.366 µg DiI-oxLDL/mg protein
- Ki (CB1): > 32 µM
- Ki (GPR55; read-out: Ki GPR55): 0.26 µM
- Ki (CB2): > 32 µM

SMILES: COc1ccc(C(=O)c2c(C)n(CCN3CCOCC3)c3cc(I)ccc23)cc1 [AM630]
- effect of the antagonist on the inhibition of oxLDL uptake by the extracts (J774.1 cells [1]): unable to counteract the inhibitory effect
- DiI-oxLDL (J774.1 cells [1]; [9]): 5.170 µg/mL and 6.331 µg/mL and 3.777 µg/mL
- µg DiI-oxLDL/mg protein (J774.1 cells [1]; [9]): 10.904 µg DiI-oxLDL/mg protein and 13.538 µg DiI-oxLDL/mg protein and 10.952 µg DiI-oxLDL/mg protein
- Ki (GPR55; [8]): 1.5 µM
- Ki (CB2; read-out: Ki CB2): 0.031 µM

SMILES: CC(=O)OCOC(=O)CN(CC(=O)OCOC(C)=O)c1ccccc1OCCOc1ccccc1N(CC(=O)OCOC(C)=O)CC(=O)OCOC(C)=O [BAPTA-2AM]
- effect of Ca2+ chelation on DiI-oxLDL internalized (J774.1 cells [1]; 6 h): very considerable impact

SMILES: C=C(C)[C@@H]1CCC(C)=C[C@H]1c1c(O)cc(CCCCC)c(C(=O)O)c1O [CBDA, cannabidiolic acid]
- effect on oxLDL uptake by the cells (dose-response, Fig 4) (J774.1 cells [1]): inhibited oxLDL endocytosis
- ED50 (J774.1 cells [1]): 18 ± 3 µM
- Ki (CB1): 0.626 µM
- Ki (CB2): 0.813 µM
- LD50 (J774.1 cells [2]): > 40 µM
- effect on cell viability and metabolism (MTT) (J774.1 cells [2]): no effect
- protection of LDL from oxidation (LDL): lack of protection

SMILES: CCCCCc1cc(O)c2c(c1)OC(C)(C)[C@@H]1CCC(C)=C[C@@H]21 [THC, Δ^9-tetrahydrocannabinol]
- DiI-oxLDL (J774.1 cells [1]): 4.013 µg/mL and 4.084 µg/mL and 4.342 µg/mL
- µg DiI-oxLDL/mg protein (J774.1 cells [1]): 10.0784 µg DiI-oxLDL/mg protein and 9.298 µg DiI-oxLDL/mg protein and 9.028 µg DiI-oxLDL/mg protein
- effect on oxLDL uptake by the cells (dose-response, Fig 4) (J774.1 cells [1]): inhibited oxLDL endocytosis
- DiI-oxLDL (J774.1 cells [1]; [10]): 5.502 µg/mL and 5.314 µg/mL and 5.656 µg/mL
- µg DiI-oxLDL/mg protein (J774.1 cells [1]; [10]): 13.3989 µg DiI-oxLDL/mg protein and 14.1131 µg DiI-oxLDL/mg protein and 13.7901 µg DiI-oxLDL/mg protein
- DiI-oxLDL (J774.1 cells [1]; [11]): 5.307 µg/mL and 5.178 µg/mL and 5.296 µg/mL
- µg DiI-oxLDL/mg protein (J774.1 cells [1]; [11]): 12.9859 µg DiI-oxLDL/mg protein and 12.4983 µg DiI-oxLDL/mg protein and 12.6611 µg DiI-oxLDL/mg protein
- DiI-oxLDL (J774.1 cells [1]; [12]): 4.772 µg/mL and 4.841 µg/mL and 4.891 µg/mL
- µg DiI-oxLDL/mg protein (J774.1 cells [1]; [12]): 12.1912 µg DiI-oxLDL/mg protein and 12.4565 µg DiI-oxLDL/mg protein and 12.6501 µg DiI-oxLDL/mg protein
- DiI-oxLDL (J774.1 cells [1]; [13]): 2.336 µg/mL and 2.309 µg/mL and 2.423 µg/mL
- µg DiI-oxLDL/mg protein (J774.1 cells [1]; [13]): 6.7266 µg DiI-oxLDL/mg protein and 6.397 µg DiI-oxLDL/mg protein and 6.486 µg DiI-oxLDL/mg protein
- ED50 (J774.1 cells [1]): 11 ± 1 µM
- Ki (GPR55; [8]): 0.008 to 0.0089 µM
- LD50 (J774.1 cells [2]): 20 ± 1 µM
- protection of LDL from oxidation (LDL): protection
